Experimental data as given in patent publication US20220306623A1, “PYRIDYL OR PYRIMIDYL MTOR KINASE INHIBITORS” (GLAXOSMITHKLINE INTELLECTUAL PROPERTY DEVELOPMENT LIMITED, priority 2019, published 2022).

Tests used:
[1] = tested on: type I collagen deposition in primary lung fibroblasts derived from human tissue; assay: Type I collagen deposition (scar-in-a-jar) high content screening assay; assay type: cell-based; details: Primary lung fibroblast, 72 h, human pulmonary fibroblasts, 96-well, TGFβ-1 1 ng/ml 72 h, collagen intensity, read-out: mean pIC50, type I collagen deposition (scar-in-a-jar) (converted)
Description: Cellular type I collagen deposition was measured by adapting a published method; scar-in-a-jar (Chen et al., 2009) to primary lung fibroblasts derived from human tissue and combining with high content analysis to permit fluorescent quantification of collagen deposited in the extracellular matrix (ECM). The human biological samples were sourced ethically and their research use was in accord with the terms of the informed consents under an IRB/EC approved protocol. Human pulmonary fibroblasts were maintained in DMEM media (Gibco, Catalogue No 21969) supplemented with 4 mM L-glutamine (Gibco Catalogue No 25030-024) and 100/heat inactivated FBS (Gibco #10270-106, Lot #42F6663K) at 37° C. in 10%/CO2. Cells were harvested and seeded at 10,000 cells per well (85 μL/well) into black walled 96 well imaging plates (BD Falcon, 353219) in assay media (0.4%/heat inactivated FBS, 4 mM L-glutamine) and incubated overnight at 37° C., 10%/CO2.
Test compounds were dissolved in 1000/DMSO to give 10 mM stocks which were further diluted (serial 1:3) to generate 10 point concentration response curves. Assay media was supplemented with 112.5 mg/ml Ficoll 70 (Sigma, Catalogue No F2878), 75 mg/ml Ficoll 400 (Sigma, Catalogue No F4375) and 50 µg/ml ascorbic acid (Sigma, Catalogue No A8960). 3 μL compound were added to 297 μL assay media (10× compound final concentration in 1% DMSO).
Diluted compounds (15 μL) were transferred to plates containing cells and incubated for 3 h at 37° C. in 10% CO2. Transforming growth factor (TGF)β-1 (R&D Systems, Catalogue No 100-B/CF) was reconstituted according to manufacturer's instructions to give 10 µg/mL (stock) and further diluted (1 in 3333) in assay media containing Ficoll and ascorbic acid. 50 μL TGFβ-1 was added to cell plates (1 ng/ml final) and cells incubated for 72 h at 37° C. in 10% CO2.
Media was removed and cells were fixed with 50 µL/well 100% ice-cold methanol (2 min). Methanol was decanted and cells washed with PBS (3×). To permeabilise, cells were incubated with PBS containing 0.1% Triton X 100 for 90 sec, followed by PBS wash (3×). Cells were incubated with mouse anti human type I collagen monoclonal antibody (Sigma, Catalogue No C2456) diluted 1:1000 in PBS overnight at 4° C. Cells were washed with PBS containing 0.05% Tween-20 (3×) and incubated with secondary alexa fluor 488 goat-anti-mouse antibody (Invitrogen, Catalogue No A11001, 1 in 500 in PBS) and Hoechst 33342 (Sigma, Catalogue No H21492), 1 in 10000 in PBS) for 1 h at RT, prior to washing with PBS containing 0.05% Tween (×3) before finally adding 200 µL/well PBS.
Type I collagen immunoreactivity was detected using the Thermofisher CellInsight NXT set to excitation and emission wavelengths for DAPI and FITC with exposure adjusted to appropriate levels. Images were analysed using Cellomics Studio software (Version 6.6.0, build 8153) and computational algorithms to quantify “collagen intensity” and “cell count”.
Data analysis was performed by determining % response values for test compounds relative to the maximum (TGFβ-1 stimulation) fitting a ‘log(inhibitor) vs. response-Variable slope (four parameters)’ curve and recording pIC50 (inverse of Log IC50) values for test compounds.

[2] = tested on: phosphorylated Akt at serine 473 (pAKTs473) in primary lung fibroblasts derived from explanted tissue; assay: Phosphorylated Akt (Ser473) in vitro immunoassay (MSD), fibroblasts from explanted tissue; assay type: cell-based; details: Homo sapiens, Primary lung fibroblast, 96-well, compound 2 h, PDGF-BB 10 ng/ml 15 min, read-out: mean pIC50, pAKTs473 immunoassay (converted)
Excerpt: Immunoassay using the Meso Scale Discovery (MSD) platform to measure the effect of test compounds on phosphorylated Akt at serine 473 (pAKTs473) in primary lung fibroblasts derived from explanted tissue. The human biological samples were sourced ethically and their research use was in accord with the terms of the informed consents under an IRB/EC approved protocol.
Human lung fibroblasts were routinely maintained in Dulbecco's Modified Eagle Medium (DMEM; Gibco, catalogue no. 21969-035) supplemented with 10% foetal bovine serum (FBS (heat-inactivated); Gibco, catalogue no. 10270-106) and 4 mM L-glutamine (Gibco, catalogue no. 25030024) at 37° C. in 10% CO2.
For the assay, cells were harvested using Trypsin/EDTA (Gibco, catalogue no. 25300-062), resuspended to give 1.2×10^5 cells/ml and 100 ul/well seeded into 96-well plates (Corning, Catalogue No. 3596) in DMEM supplemented with 0.4% FCS and 4 mM L-glutamine and incubated overnight at 37° C. in 10% CO2.
Test compounds were dissolved in 100% DMSO to give 10 mM stock solutions and serially diluted to generate a 10-point concentration response curve. Compounds were further diluted 100-fold into 96-well V-bottom polypropylene plates (Greiner, Catalogue no. 651201) with DMEM supplemented with 0.4% FCS and 4 mM L-glutamine to give 100 µM top compound concentration in 1% DMSO.
Compounds were further diluted 10-fold by transfer to 96-well plates containing cells ([…] top concentration, 0.1% DMSO final) and incubated for 2 h at 37° C. in 10% CO2, prior to stimulation with platelet-derived growth factor (PDGF)-BB (Gibco, Catalogue no. PHG0041) at 10 ng/ml (final) for 15 min at 37° C. in 10% CO2. Cell assay plates were then incubated on ice and treated with lysis buffer (Cell Signalling Technology, Catalogue No. 9803) containing protease and phosphatase inhibitors (Halt, Thermo Scientific, Catalogue No. 78444) for 30 min.
MSD plates (MSD, Phospho(Ser473)/Total Akt Whole Cell Lysate Kit, Catalogue No. K15100D-3) were blocked with 1×blocking buffer as per the manufacturer's instructions at RT with shaking, followed by washing (×3) with Tris-buffered saline containing 0.05% Tween-20 (TBST). Cell lysates (30 ul) were added and MSD plates incubated for 1 h at RT with shaking.
Plates were washed with TBST (×3), prior to addition of SULFO-TAG Anti-Total Akt Antibody as per the manufacturer's instructions and shaken at RT for 1 h. After washing with 1×TBST (×3), read buffer (1×) (MSD, Catalogue No. R92TC-1) was added as per the manufacturer's instructions before detecting electrochemiluminescence (MSD Sector Imager 600).
Data analysis was performed using non-linear regression analysis to determine IC50 values for test compounds. Minimum (no PDGF-BB stimulation) and maximum responses (+PDGF-BB stimulation) were monitored for assay quality control.

Compound	IC50 [1] [µM]	IC50 [2] [µM]
CC[C@H]1COCCN1c1cc(CS(=O)(=O)CC)nc(-c2ccc3[nH]c(CNC)cc3n2)n1 [Example 33, (S)-1-(5-(4-(3-ethylmorpholino)-6-((ethylsulfonyl)methyl)pyrimidin-2-yl)-1H-pyrrolo[3,2-b]pyridin-2-yl)-N-methylmethanamine]	< 3.98	
CCCS(=O)(=O)Cc1cc(N2CCOC[C@@H]2CC)nc(-c2ccc3[nH]c(CNC)cc3n2)n1 [Example 32, (S)-1-(5-(4-(3-ethylmorpholino)-6-((propylsulfonyl)methyl)pyrimidin-2-yl)-1H-pyrrolo[3,2-b]pyridin-2-yl)-N-methylmethanamine]	< 3.98	< 0.1
CC[C@H]1COCCN1c1cc(CS(=O)(=O)N(CC)CC)nc(-c2ccc3[nH]c(CNC)cc3n2)n1 [Example 30, (S)—N,N-diethyl-1-(6-(3-ethylmorpholino)-2-(2-((methylamino)methyl)-1H-pyrrolo[3,2-b]pyridin-5-yl)pyrimidin-4-yl)methanesulfonamide]	< 3.98	
